The assay relates to adult brown tick (Rhipicephalus sanguineus). Kind of assay: Assay 5: adult brown tick infestations on dogs. The class given is in vivo, Rhipicephalus sanguineus on beagle dogs. Conditions: 10 mg/kg topical spot-on. The procedure: The total number of live parasites present on each dog is determined for each interval, and this number is transformed using the natural logarithm transformation plus one (Ln count+1); addition of one to each count served to adjust for counts that are zero. Geometric mean (GM) group tick and flea counts are obtained via back-transformation of group mean transformed counts and subtracting one. The negative control group is used for comparison to treated groups for the calculation of percent efficacy (% reduction in live parasite counts). GM percent efficacy of treatments is calculated using the following formula: […]
The therapeutic (knockdown) and residual efficacy of the Example 1-4 compounds, when administered via topical spot-on at 10 mg/kg, is evaluated against adult brown tick (Rhipicephalus sanguine us) infestations on dogs. Twenty (20) beagle dogs are allocated to either an untreated, negative control group or one of four treated groups (n=4 dogs per group). Dogs are infested with approximately 50 unfed, adult R. sanguineus ticks on Days −1, 5, 12, 19 and 28. On Day 0, dogs are treated with Example 1-4 compound formulations (each, 50 mg/ml of technical active dissolved in a vehicle solution of propylene carbonate, benzyl alcohol, and isopropyl myristate), applied via topical spot-on in a volume so as to achieve a point dose of 10 mg/kg. Tick counts and classification are conducted on Days 2, 7, 14, 21 and 30. GM percent efficacy of treatments against ticks is calculated using the formula in Assay 3.

The values below come from patent US20160115189A1, “PARASITICIDAL COMPOUNDS, METHODS, AND FORMULATIONS” (ELI LILLY AND COMPANY, priority 2013, published 2016).

SMILES strings stand for the structures.

Consider `CC[C@H]1CCC[C@H](NC(=O)c2ccncn2)[C@@H](C)C(=O)C2=C[C@@H]3[C@@H](C=C[C@@H]4C[C@@H](O[C@@H]5O[C@@H](C)[C@H](OC)C(OC)[C@H]5OC)C[C@@H]34)[C@@H]2CC(=O)O1` (stereo partly drawn) [Example 2, N-((2R,3aS,5aR,5bS,9S,14R,16aS,16bR)-9-ethyl-14-methyl-7,15-dioxo-2-(((2R,3R,5S,6S)-3,4,5-trimethoxy-6-methyltetrahydro-2H-pyran-2-yl)oxy)-2,3,3a,5a,5 b,6,7,9,10,11,12,13,14,15,16a,16b-hexadecahydro-1H-as-indaceno[3,2-d][1]oxacyclododecin-13-yl)pyrimidine-4-carboxamide], for which the GM percent efficacy entry by setting is: (Day 2, R. sanguineus) “(53.80)”; (Day 7, R. sanguineus) “(99.12)”; (Day 14, R. sanguineus) “(73.29)”; (Day 21, R. sanguineus) “(76.46)”; (Day 30, R. sanguineus) “(33.99)”. Further, the “Geometric Mean Group Live Tick Counts” value runs as follows: (Day 2, R. sanguineus) 14.55; (Day 7, R. sanguineus) 0.19; (Day 14, R. sanguineus) 5.82; (Day 21, R. sanguineus) 7.91; (Day 30, R. sanguineus) 17.31.

Regarding `CC[C@H]1CCC[C@H](NC(=O)c2ccncc2)[C@@H](C)C(=O)C2=C[C@@H]3[C@@H](C=C[C@@H]4C[C@@H](O[C@@H]5O[C@@H](C)[C@H](OC)C(OC)[C@H]5OC)C[C@@H]34)[C@@H]2CC(=O)O1` (stereo partly drawn) [Example 3, N-((2R,3aS,5aR,5bS, 9S,13S,14R,16aS, 16bR)-9-ethyl-14-methyl-7,15-dioxo-2-(((2R,3R,5S,6S)-3,4,5-trimethoxy-6-methyltetrahydro-2H-pyran-2-yl)oxy)-2,3,3a,5a,5b,6,7,9,10,11,12,13,14, 15,16a,16b-hexadecahydro-1H-as-indaceno[3,2-d][1]oxacyclododecin-13-yl)isonicolina-mide], the GM percent efficacy entry by setting is: (Day 2, R. sanguineus) “(62.52)”; (Day 7, R. sanguineus) “(85.01)”; (Day 14, R. sanguineus) “(76.50)”; (Day 21, R. sanguineus) “(82.44)”; (Day 30, R. sanguineus) “(41.02)”. Moreover, the “Geometric Mean Group Live Tick Counts” value reads like this: (Day 2, R. sanguineus) 11.80; (Day 7, R. sanguineus) 3.23; (Day 14, R. sanguineus) 5.12; (Day 21, R. sanguineus) 5.90; (Day 30, R. sanguineus) 15.47.

Turning to `CC[C@H]1CCC[C@H](NC(=O)c2cc(C)on2)[C@@H](C)C(=O)C2=C[C@@H]3[C@@H](C=C[C@@H]4C[C@@H](O[C@@H]5O[C@@H](C)[C@H](OC)C(OC)[C@H]5OC)C[C@@H]34)[C@@H]2CC(=O)O1` (stereo partly drawn) [Example 4, N-((2R,3aS,5aR,5bS, 9S,13S,14R,16aS, 16bR)-9-ethyl-14-methyl-7,15-dioxo-2-(((2R,3R,5S,6S)-3,4,5-trimethoxy-6-methyltetrahydro-2H-pyran-2-yl)oxy)-2,3,3a,5a,5b,6,7,9, 10,11,12,13,14,15, 16a,16b-hexadecahydro-1H-as-indaceno[3,2-d][1]oxacyclododecin-13-yl)-5-methyl-isoxazole-3-carboxamide], the GM percent efficacy entry (Day 2, R. sanguineus) is listed as “(67.71)”; the GM percent efficacy result (Day 7, R. sanguineus) is given as “(96.60)”; the GM percent efficacy result (Day 14, R. sanguineus) is on record as “(82.25)”; the GM percent efficacy result (Day 21, R. sanguineus) was “(81.13)”; the GM percent efficacy result (Day 30, R. sanguineus) was “(26.88)”. In addition, the “Geometric Mean Group Live Tick Counts” value stood at 10.17 (Day 2, R. sanguineus); 0.73 (Day 7, R. sanguineus); 3.86 (Day 14, R. sanguineus); 6.34 (Day 21, R. sanguineus); 19.17 (Day 30, R. sanguineus).
